Measured values: patent US11795177B2, “Substituted quinoline analogs as aldehyde dehydrogenase 1A1 (ALDH1A1) inhibitors” (THE UNITED STATES OF AMERICA, AS REPRESENTED BY THE …, priority 2017, dated 2023)

What follows are molecules tested on MIA PaCa-2 cells (assay: MIA PaCa2 cell-based assay (1,536-well high-content imaging ALDEFLUOR assay)). Settings: Homo sapiens, 0.5 h, ALDEFLUOR BAAA substrate 500 nM, 30 minutes.
Design: species or system human
Protocol: Example 359. MIA PaCa2 Cell-Based Assay (In Vitro Assay)
1,536-Well High-Content Imaging ALDEFLUOR Assay
The ALDEFLUOR™ kit was purchased from […] Technologies (Vancouver, Canada; #01700). MIA PaCa-2 cells (5 μL; 1,000 cells/well) were dispensed into black, optical quality (cyclic olefin copolymer) clear bottom, medium binding TC treated 1,536-well plates (Aurora Microplates, Whitefish Mont.) using a Multidrop Combi dispenser (ThermoFisher) and incubated overnight (37° C., 5% CO2, 85% RH). Media (RPMI 1640 (Life Technologies, Carlsbad, Calif.), supplemented with 2 mM L-Glutamine (Life Technologies), 10% HyClone™ fetal bovine serum (FBS, GE Healthcare, Piscataway, N.J.) and 100 U/mL penicillin and 100 μg/mL streptomycin (Life Technologies)) was subsequently removed by centrifuging plates upside down using a plate adaptor to collect media. A solution of BAAA substrate ([…] Technologies) and Hoechst 33342 (ThermoFisher, final concentrations of 500 nM and 0.5 nM, respectively) in ALDEFLUOR™ buffer ([…] Technologies #01700) was dispensed onto cells using a Multidrop Combi followed by immediate transfer (23 nL) of compound or control solutions using a Wako Pin-tool (final percentage of DMSO in the cell plates was 0.5%). Unless otherwise noted, all compounds were assayed as 16-point dilutions spanning a final concentration range of 1.4 nM to 47.8 μM. The neutral and positive assay controls were DMSO and DEAB (4.6 μM), respectively. Cells were incubated for 30 minutes or the indicated amount of time at 37° C., 5% CO2, 85% RH to allow the conversion of BAAA into BAA. Supernatant was subsequently removed by centrifugation as described above, then ALDEFLUOR™ buffer (3 μl) was dispensed by Multidrop Combi before imaging on an IN Cell 2200 (GE Healthcare).
The above assay was modified for an online robotic screening system. After cell plating and overnight incubation, 4 μL of media were removed using a 64-tip metal aspirator head on a Wako aspirator station, leaving 1 μL remaining in the well, followed by a 4 μL dispense of BAAA and Hoechst 33342 in ALDEFLUOR™ buffer, for a final concentration of 500 nM and 0.5 nM, respectively Immediately following the dispense, 23 nL of compound or control solutions were transferred using a Wako Pin-tool. Cells were incubated for 30 minutes at 37° C., 5% CO2, 85% RH, followed by a 4 μL media removal using the Wako aspirator, and a subsequent 3 μL addition of ALDEFLUOR™ buffer. Plates were then immediately read on the IN Cell 2200 as described below.
Image Acquisition and Analysis
For images captured on the IN Cell 2200 widefield automated microscope, a 10×0.45 NA Plan Apo objective lens was used to capture the entire well of the 1,536-well plate using standard DAPI (390/18×, 432/48 m) and FITC (475/28×, 525/48 m) filter sets at 50 msec and 100 msec exposures, respectively. Images were subsequently analyzed using IN Cell Investigator v1.6.2 analysis software's canned Multi-Target Analysis algorithm (GE Healthcare). Hoechst stained nuclei were identified using top hat segmentation with a minimum area of 75 μm^2 and sensitivity of 93. BAA-retaining cells captured via FITC channel, were identified using multiscale top hat segmentation with a minimum area of 100 μm^2 and a sensitivity setting of 16. […] Data were plotted using GraphPad Prism software (GraphPad, San Diego, Calif.).
`CS(=O)(=O)N1CCN(C(=O)c2cnc3cc(F)c(F)cc3c2N2CCC(C#N)(c3ccccc3)CC2)CC1` [Cpd. 319, 1-(6,7-difluoro-3-(4-(methylsulfonyl)piperazine-1-carbonyl)quinolin-4-yl)-4-phenylpiperidine-4-carbonitrile] was tested, and the IC50 was less than 0.5 µM. Work on `O=C(c1cnc2ccc(F)cc2c1N1C[C@H]2CCCC[C@H]2C1)N1CCN(C(=O)C2CC2)CC1` [Example 83, (4-(cyclopropanecarbonyl)piperazin-1-yl)(6-fluoro-4-((3aR*,7aS*)-hexahydro-1H-isoindol-2(3H)-yl)quinolin-3-yl)methanone] yielded an IC50 greater than 10 µM. In the case of `O=C(c1cnc2c(F)cc(F)cc2c1N1CCC2(CC1)OCCO2)N1CCN(C(=O)C2CC2)CC1` [Example 78, (4-(cyclopropanecarbonyl)piperazin-1-yl)(6,8-difluoro-4-(1,4-dioxa-8-azaspiro[4.5]decan-8-yl)quinolin-3-yl)methanone], the IC50 is reported as 1 to 10 µM. Molecule `N#CC1(Cc2ccccc2)CCN(c2c(C(=O)N3CCN(C(=O)C4CC4)CC3)cnc3ccc(F)cc23)CC1` [Example 244, 4-benzyl-1-(3-(4-(cyclopropanecarbonyl)piperazine-1-carbonyl)-6-fluoroquinolin-4-yl)piperidine-4-carbonitrile] has an IC50 greater than 10 µM. `COc1ccc2ncc(C(=O)N3CCN(S(C)(=O)=O)CC3)c(-c3ccc(C4(C#N)CC4)cc3)c2c1` [Cpd. 321, 1-(4-(6-methoxy-3-(4-(methylsulfonyl)piperazine-1-carbonyl)quinolin-4-yl)phenyl)cyclopropane-1-carbonitrile] showed an IC50 of less than 0.5 µM. For `N#CC1(c2ccccc2)CCN(c2c(C(=O)Nc3cnn(CC(N)=O)c3)cnc3ccc(F)cc23)CC1` [Cpd. 352, N-(1-(2-amino-2-oxoethyl)-1H-pyrazol-4-yl)-4-(4-cyano-4-phenylpiperidin-1-yl)-6-fluoroquinoline-3-carboxamide], the IC50 was less than 0.5 µM. Work on `CC1(C#N)CCN(c2c(C(=O)N3CCC(S(C)(=O)=O)CC3)cnc3ccc(F)cc23)CC1` [Example 188, 1-(6-fluoro-3-(4-(methylsulfonyl)piperidine-1-carbonyl)quinolin-4-yl)-4-methylpiperidine-4-carbonitrile] yielded an IC50 of 1 to 10 µM. `CS(=O)(=O)N1CCN(C(=O)c2cnc3ccc(Cl)cc3c2-c2ccc(C3(C#N)CC3)cc2)CC1` [Example 297, 1-(4-(6-chloro-3-(4-(methylsulfonyl)piperazine-1-carbonyl)quinolin-4-yl)phenyl)cyclopropanecarbonitrile] showed an IC50 of less than 0.5 µM. `O=C(c1cnc2ccc(F)cc2c1N1CCC2(CC1)OCCO2)N1CCN(C(=O)C2CC2)CC1` [Example 31, (4-(cyclopropanecarbonyl)piperazin-1-yl)(6-fluoro-4-(1,4-dioxa-8-azaspiro[4.5]decan-8-yl)quinolin-3-yl)methanone] was tested, and the IC50 was 1 to 10 µM. `CN(C)C(=O)N1CCN(C(=O)c2cnc3ccc(F)cc3c2-c2ccc(C3(C#N)CC3)cc2)CC1` [Example 265, 4-(4-(4-(1-cyanocyclopropyl)phenyl)-6-fluoroquinoline-3-carbonyl)-N,N-dimethylpiperazine-1-carboxamide] was tested, and the IC50 was less than 0.5 µM. With `CS(=O)(=O)N1CCN(C(=O)c2cnc3ccsc3c2-c2ccc(C3(C#N)CC3)cc2)CC1` [Example 286] the IC50 was less than 0.5 µM. `C[C@H]1CN(C(=O)c2cnc3ccc(F)cc3c2N2CCC(C)(C#N)CC2)CCN1S(C)(=O)=O` [Example 226, (S)-1-(6-fluoro-3-(3-methyl-4-(methylsulfonyl)piperazine-1-carbonyl)quinolin-4-yl)-4-methylpiperidine-4-carbonitrile] showed an IC50 of 1 to 10 µM. Work on `CC1(C)CCN(c2c(C(=O)N3CCN(C(=O)C4CC4)CC3)cnc3ccc(F)cc23)CC1` [Example 65, (4-(cyclopropanecarbonyl)piperazin-1-yl)(4-(4,4-dimethylpiperidin-1-yl)-6-fluoroquinolin-3-yl)methanone] yielded an IC50 of 1 to 10 µM. `CC1(C#N)CCN(c2c(C(=O)N3CCN(C(=O)C4CC4)CC3)cnc3sccc23)CC1` [Example 219, 1-(5-(4-(cyclopropanecarbonyl)piperazine-1-carbonyl)thieno[2,3-b]pyridin-4-yl)-4-methylpiperidine-4-carbonitrile] showed an IC50 of 1 to 10 µM. With `CS(=O)(=O)N1CCN(C(=O)c2cnc3ccc(F)cc3c2N2CCC(O)(c3ccccc3)CC2)CC1` [Example 292, (6-fluoro-4-(4-hydroxy-4-phenylpiperidin-1-yl)quinolin-3-yl)(4-(methylsulfonyl)piperazin-1-yl)methanone] the IC50 was 1 to 10 µM. Work on `O=C(c1cnc2ccc(F)cc2c1N1CCC2(CCCC2)CC1)N1CCN(C(=O)C2CC2)CC1` [Example 62, (4-(cyclopropanecarbonyl)piperazin-1-yl)(6-fluoro-4-(8-azaspiro[4.5]decan-8-yl)quinolin-3-yl)methanone] yielded an IC50 greater than 10 µM. In the case of `CS(=O)(=O)N1CCN(C(=O)c2cnc3ccc(F)cc3c2N2CCC3(CC2)CC(=O)c2ccccc23)CC1` [Example 199, 1′-(6-fluoro-3-(4-(methylsulfonyl)piperazine-1-carbonyl)quinolin-4-yl)spiro[indene-1,4′-piperidin]-3(2H)-one], the IC50 is reported as 1 to 10 µM. `CS(=O)(=O)N1CCN(C(=O)c2cnc3ccc(F)cc3c2-c2ccc(C3(C#N)CC3)cc2)CC1` [Example 210, 1-(4-(6-fluoro-3-(4-(methylsulfonyl)piperazine-1-carbonyl)quinolin-4-yl)phenyl)cyclopropanecarbonitrile] was tested, and the IC50 was less than 0.5 µM. `CS(=O)(=O)N1CCN(C(=O)c2cnc3ccc(F)cc3c2N2CCC(CO)(c3ccccc3)CC2)CC1` [Example 256, (6-fluoro-4-(4-(hydroxymethyl)-4-phenylpiperidin-1-yl)quinolin-3-yl)(4-(methylsulfonyl)piperazin-1-yl)methanone] gave an IC50 of 1 to 10 µM. In the case of `CC1(C#N)CCN(c2c(C(=O)N3CCC(C(=O)C4CC4)CC3)cnc3ccc(F)cc23)CC1` [Example 194, 1-(3-(4-(cyclopropanecarbonyl)piperidine-1-carbonyl)-6-fluoroquinolin-4-yl)-4-methylpiperidine-4-carbonitrile], the IC50 is reported as 1 to 10 µM. `CS(=O)(=O)N1CCN(C(=O)c2cnc3cc(F)c(F)cc3c2-c2ccc(C3(C#N)CC3)cc2)CC1` [Cpd. 323, 1-(4-(6,7-difluoro-3-(4-(methylsulfonyl)piperazine-1-carbonyl)quinolin-4-yl)phenyl)cyclopropane-1-carbonitrile] was tested, and the IC50 was less than 0.5 µM. Molecule `O=C(c1cnc2ccc(F)cc2c1N1CCC2(CCCO2)CC1)N1CCN(C(=O)C2CC2)CC1` [Example 66, (4-(cyclopropanecarbonyl)piperazin-1-yl)(6-fluoro-4-(1-oxa-8-azaspiro[4.5]decan-8-yl)quinolin-3-yl)methanone] has an IC50 of 1 to 10 µM. `CC(C)C(=O)N1CCN(C(=O)c2cnc3ccc(F)cc3c2N2CCC(C)(C#N)CC2)CC1` [Example 92, 1-(6-fluoro-3-(4-isobutyrylpiperazine-1-carbonyl)quinolin-4-yl)-4-methylpiperidine-4-carbonitrile] showed an IC50 of 1 to 10 µM. In the case of `CS(=O)(=O)N1CCN(C(=O)c2cnc3ccc(F)cc3c2N2CCC(C#N)(c3ccc(F)cc3)CC2)CC1` [Example 279, 1-(6-fluoro-3-(4-(methylsulfonyl)piperazine-1-carbonyl)quinolin-4-yl)-4-(4-fluorophenyl)piperidine-4-carbonitrile], the IC50 is reported as less than 0.5 µM. For `CS(=O)(=O)N1CCN(C(=O)c2cnc3ccc(F)cc3c2N2CCC(C#N)(c3ccccc3F)CC2)CC1` [Example 274, 1-(6-fluoro-3-(4-(methylsulfonyl)piperazine-1-carbonyl)quinolin-4-yl)-4-(2-fluorophenyl)piperidine-4-carbonitrile], the IC50 was less than 0.5 µM.
